# Measurements taken from ChEMBL document CHEMBL1132705, “Synthesis and biological activities of spiroheterocyclic growth hormone secretagogues” (Bioorg Med Chem Lett, 1999).
# Organism: Rattus norvegicus
# Assay: Stimulation of growth hormone (GH) release determined in vitro by rat pituitary cell assay.
# Type: functional
# Details: Pituitary gland cell
row,Structure (SMILES),EC50 [nM]
1,CC(C)(N)C(=O)N[C@H](CCc1ccccc1)C(=O)N1CCC2(CCc3ccccc32)CC1,22
2,CC(C)(N)C(=O)N[C@H](CCc1ccccc1)C(=O)N1CCC2(CC1)CSc1ccccc12,57
3,CC(C)(N)C(=O)N[C@H](CCC1CCCCC1)C(=O)N1CCC2(CCc3ccccc32)CC1,21
4,CC(C)(N)C(=O)N[C@H](COCc1ccccc1)C(=O)N1CCC2(CC1)COc1ccccc12,8.5
5,CC(C)(N)C(=O)N[C@H](CCCc1ccccc1)C(=O)N1CCC2(CC1)CSc1ccccc12,4.8
6,CC(C)(N)C(=O)N[C@H](Cc1c[nH]c2ccccc12)C(=O)N1CCC2(CC1)CSc1ccccc12,5.6
7,CC(C)(N)C(=O)N[C@H](CCc1ccccc1)C(=O)N1CCC2(CC1)CS(=O)(=O)c1ccccc12,6
8,CC(C)(N)C(=O)N[C@H](CCC1CCCCC1)C(=O)N1CCC2(CC1)CS(=O)(=O)c1ccccc12.Cl,1.4
9,CC(C)(N)C(=O)N[C@H](CCCc1ccccc1)C(=O)N1CCC2(CC1)COc1ccccc12,2.7
10,CC(C)(N)C(=O)N[C@H](CCCc1ccccc1)C(=O)N1CCC2(CC1)C[S+]([O-])c1ccccc12.Cl (stereo partly specified),2
11,CC(C)(N)C(=O)N[C@H](CCC1CCCCC1)C(=O)N1CCC2(CC1)C[S+]([O-])c1ccccc12 (stereo partly specified),3.4
12,CC(C)(N)C(=O)N[C@H](COCc1ccccc1)C(=O)N1CCC2(CC1)CSc1ccccc12,10
13,CC(C)(N)C(=O)N[C@H](COCc1ccccc1)C(=O)N1CCC2(CC1)CS(=O)(=O)c1ccccc12,5
14,CC(C)(N)C(=O)N[C@H](Cc1c[nH]c2ccccc12)C(=O)N1CCC2(CC1)CS(=O)(=O)c1ccccc12,2.1
15,CC(C)(N)C(=O)N[C@H](CCCc1ccccc1)C(=O)N1CCC2(CC1)CS(=O)(=O)c1ccccc12.Cl,1.1
16,CC(C)(N)C(=O)N[C@H](COCc1ccccc1)C(=O)N1CCC2(CC1)C[S+]([O-])c1ccccc12 (stereo partly specified),8.5
17,CC(C)(N)C(=O)N[C@H](CCC1CCCCC1)C(=O)N1CCC2(CC1)CSc1ccccc12,8.1

# Organism: Canis familiaris
# Assay: Minimum effective dose required for oral activity in beagles that caused at least five fold elevation of growth hormone (GH) over basal levels
# Type: functional
# Details: Canis lupus familiaris, read-out: MED
row,Structure (SMILES),minimal effective dose [mg/kg]
1,CC(C)(N)C(=O)N[C@H](CCCc1ccccc1)C(=O)N1CCC2(CCc3ccccc32)CC1.Cl,5
2,CC(C)(N)C(=O)N[C@H](CCC1CCCCC1)C(=O)N1CCC2(CC1)CS(=O)(=O)c1ccccc12.Cl,0.25
3,CC(C)(N)C(=O)N[C@H](CCCc1ccccc1)C(=O)N1CCC2(CC1)C[S+]([O-])c1ccccc12.Cl (stereo partly specified),0.25
4,CC(C)(N)C(=O)N[C@H](CCCc1ccccc1)C(=O)N1CCC2(CC1)CS(=O)(=O)c1ccccc12.Cl,0.125
